# Data reported in patent US20260364068A1, “ANTIVIRAL USE OF HETEROARYL DERIVATIVE COMPOUND” (UIF (University Industry Foundation), Yonsei University, priority 2022, published 2026).
# Read-outs that look alike come from different tables or passages of the source.
# How the values were obtained:
# Assay type in all cases: cell-based
# human ANO6 (variant 5) = target: T1, human ANO6 (variant 5) (Homo sapiens, UniProt Q4KMQ2); experiment: Lact C2 assay (phosphatidylserine externalization scramblase function); conditions: FRT cells expressing human ANO6, ionomycin 10 μM, read-out: % Inhibition (phosphatidylserine externalization inhibitory activity); for inhibition at 0.05 µM: 50 nM
# T1 construct: expressed in transfected cells; host or cells: Fisher rat thyroid (FRT) cells
# T1 sequence (Q4KMQ2 1-931 isoform Q4KMQ2-2): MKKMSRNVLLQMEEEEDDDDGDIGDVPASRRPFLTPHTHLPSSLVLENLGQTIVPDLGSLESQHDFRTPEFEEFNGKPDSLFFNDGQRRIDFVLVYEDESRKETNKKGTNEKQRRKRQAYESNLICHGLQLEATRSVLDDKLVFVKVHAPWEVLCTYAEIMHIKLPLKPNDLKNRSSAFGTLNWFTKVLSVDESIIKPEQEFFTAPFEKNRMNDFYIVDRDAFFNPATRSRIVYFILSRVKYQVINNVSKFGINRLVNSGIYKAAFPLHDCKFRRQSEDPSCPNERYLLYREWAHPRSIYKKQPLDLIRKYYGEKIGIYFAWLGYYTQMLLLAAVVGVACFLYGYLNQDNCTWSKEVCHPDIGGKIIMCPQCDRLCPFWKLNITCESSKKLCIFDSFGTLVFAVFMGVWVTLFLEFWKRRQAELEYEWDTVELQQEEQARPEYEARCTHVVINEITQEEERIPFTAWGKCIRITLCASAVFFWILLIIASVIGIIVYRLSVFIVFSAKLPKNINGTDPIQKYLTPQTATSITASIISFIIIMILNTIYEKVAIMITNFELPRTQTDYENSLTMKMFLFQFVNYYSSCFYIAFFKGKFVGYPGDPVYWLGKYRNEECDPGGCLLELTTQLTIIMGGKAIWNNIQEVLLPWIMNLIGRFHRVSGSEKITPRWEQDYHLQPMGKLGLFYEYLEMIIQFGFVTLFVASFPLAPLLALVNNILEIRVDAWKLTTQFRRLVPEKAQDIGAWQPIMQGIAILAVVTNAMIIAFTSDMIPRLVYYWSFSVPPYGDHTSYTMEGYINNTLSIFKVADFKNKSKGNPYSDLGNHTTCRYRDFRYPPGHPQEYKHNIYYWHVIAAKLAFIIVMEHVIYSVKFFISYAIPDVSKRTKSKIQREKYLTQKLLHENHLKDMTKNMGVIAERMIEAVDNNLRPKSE
# Protocol: Experimental Example 2: Lact C2 Assay (Measuring Phosphatidylserine Externalization Scramblase Function)
# Ionomycin (Alomonelab, cat. #I-700), DAPI (Sigma-Aldrich, cat. #D8417), paraformaldehyde (Biosesang, cat. #P2031), Lionheart FX automated fluorescence microscope (BioTek), Gen5™ software program (BioTek), and Image J analysis software program.
# Fisher rat thyroid (FRT) cells expressing human ANO6 (variant 5; GenBank accession no. NP_001191732.1) were cultured at 37 °C under 5% CO2 conditions in DMEM/Ham's F-12 (1:1) medium supplemented with 10% Fetal Bovine Serum, 2 mM […], 100 units/mL penicillin, and 100 μg/mL streptomycin.
# Fischer Rat Thyroid (FRT) cells (2×10^4 cells/well) expressing human ANO6 (variant 5) were cultured in a 96-well microplate for 24 hours. After the incubation, the cells were treated with compounds dissolved in DMSO to 1% v/v in each well at each concentration (50 nM, 100 nM, and 1 μM) and reacted for 10 minutes. Thereafter, each well was treated with ionomycin to a final concentration of 10 μM, allowed to react for 10 minutes, and then washed with 200 μL PBS. After washing, each well was treated with 50 μL of Lactadherin-C2 (Lact-C2)-GFP mixed in DMEM medium to a final concentration of 500 nM to stain phosphatidylserine, and cultured at 37 °C for 10 minutes. After completion of the reaction, the cells were washed with 200 μL PBS, and fixed with 4% paraformaldehyde for 5 minutes at room temperature. For morphological analysis, DAPI solution was added, and the cells were incubated for 15 minutes, followed by washing with PBS. The fluorescence intensity of Lact-C2-GFP bound to phosphatidylserine on the cell surface was measured using an automated fluorescence microscope. For quantitative analysis of the fluorescence intensity of Lact-C2-GFP, BioTek Gen5™ software and Image J analysis software programs were used.
# Phosphatidylserine externalization inhibitory activity (%) by the compound was calculated through the following analysis method. Specifically, the background fluorescence value was subtracted from the measured Lact-C2-GFP fluorescence value, and the fluorescence value of the ionomycin non-treatment group and the ionomycin-treatment group in the same row where each test group was located in a 96-well microplate were calculated. In order to calculate the inhibitory activity (%) by the compound, the relative inhibitory activity was calculated by setting the compound and ionomycin non-treatment group to 100% inhibitory activity and the ionomycin alone treatment group to 0% inhibitory activity. To derive the results, the test was repeated three times, and the average values of the results were classified according to the range below and shown in Table 4 below (A: >60% inhibition, B: 30 to 60% inhibition, N/A: no test).
# [1] = Cell viability measurement (MTS), Calu-3 cells; conditions: human
# Summary of the method: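 Calu-3 cells at about 20% confluency treated with compounds at 1, 3 and 10 μM (0.5% v/v DMSO) for 48 h at 37 °C. MTS added for 1 h; A490 minus A690 background, normalized to DMSO control as 100%; mean of 2–6 repeats, binned into viability ranges.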
# [2] = system: Severe Acute Respiratory Syndrome Coronavirus Type 2; experiment: microbe, parasite or virus in culture; conditions: Vero, 10 uM, virus strain NCCP-43388, 48 hours, read-out: Virus replication inhibition efficacy
# [3] = system: Severe Acute Respiratory Syndrome Coronavirus Type 2; experiment: microbe, parasite or virus in culture; conditions: Calu-3, 10 uM, virus strain NCCP-43388, 48 hours, read-out: Virus replication inhibition efficacy
SMILES,inhibition at 1 µM (human ANO6 (variant 5)) [%],"viability at 48 h, 1 µM ([1]; 1 μM) [%]","viability at 48 h, 3 µM ([1]; 3 μM) [%]","viability at 48 h, 10 µM [1] [%]",inhibition at 0.05 µM (human ANO6 (variant 5)) [%],inhibition at 10 µM [2] [%],inhibition at 10 µM [3] [%]
"FC(F)(F)c1ccc2nc(-c3cccc(NC4CCC(c5cccnn5)CC4)c3)[nH]c2c1 (mixture of isomers) [Example 124, N-(4-(pyridazin-3-yl)cyclohexyl)-3-(6-(trifluoromethyl)-1H-benzo[d]imidazol-2-yl)aniline]",30 to 60,–,–,–,–,–,–
"Fc1ccc2nc(-c3cccc(Nc4ncc(-c5cccnn5)cn4)c3)[nH]c2c1 [Example 51, N-(3-(6-fluoro-1H-benzo[d]imidazol-2-yl)phenyl)-5-(pyridazin-3-yl)pyrimidin-2-amine]",–,> 80,> 80,> 80,30 to 60,–,–
"COc1cc2nc(-c3cccc(Nc4ncc(-c5cccnn5)cn4)c3)[nH]c2cc1F [Example 121, N-[3-(6-fluoro-5-methoxy-1H-benzo[d]imidazol-2-yl)phenyl]-5-pyridazin-3-yl-pyrimidin-2-amine]",30 to 60,–,–,–,–,–,–
"CN(Cc1ccccc1)c1ccc2nc(-c3cccc(Nc4ccc(-c5cccnn5)cc4)c3)[nH]c2c1 [Example 280, N-benzyl-N-methyl-2-(3-((4-(pyridazin-3-yl)phenyl)amino)phenyl)-1H-benzo[d]imidazol-6-amine]",> 60,–,–,–,30 to 60,> 60,> 60
"Fc1cc2nc(-c3cccc(Nc4ncc(-c5ccccn5)cn4)c3)[nH]c2cc1F [Example 313, N-(3-(5,6-difluoro-1H-benzo[d]imidazol-2-yl)phenyl)-5-(pyridin-2-yl)pyrimidin-2-amine]",> 60,–,–,> 80,> 60,–,–
"Fc1ccc2nc(-c3cccc(Nc4cnc(-c5ccccn5)cn4)c3)[nH]c2c1 [Example 323, N-(3-(6-fluoro-1H-benzo[d]imidazol-2-yl)phenyl)-5-(pyridin-2-yl)pyrazin-2-amine]",> 60,–,–,> 80,30 to 60,–,–
"Clc1ccc2nc(-c3cccc(Nc4cnc(-c5ccccn5)cn4)c3)[nH]c2c1 [Example 324, N-(3-(6-chloro-1H-benzo[d]imidazol-2-yl)phenyl)-5-(pyridin-2-yl)pyrazin-2-amine]",> 60,–,–,> 80,30 to 60,–,–
"FC(F)(F)Oc1ccc2nc(-c3cccc(Nc4cnc(-c5ccccn5)cn4)c3)[nH]c2c1 [Example 325, 5-(pyridin-2-yl)-N-(3-(6-(trifluoromethoxy)-1H-benzo[d]imidazol-2-yl)phenyl)pyrazin-2-amine]",> 60,–,–,–,–,–,–
"FC(F)(F)c1cc2[nH]c(-c3cccc(Nc4cnc(-c5ccccn5)cn4)c3)nc2cn1 [Example 328, 5-(pyridin-2-yl)-N-(3-(6-(trifluoromethyl)-1H-imidazo[4,5-c]pyridin-2-yl)phenyl)pyrazin-2-amine]",> 60,–,–,–,–,–,–
"FC(F)Oc1cc2[nH]c(-c3cccc(Nc4ncc(-c5ccccn5)cn4)c3)nc2cn1 [Example 329, N-(3-(6-(difluoromethoxy)-1H-imidazo[4,5-c]pyridin-2-yl)phenyl)-5-(pyridin-2-yl)pyrimidin-2-amine]",> 60,–,–,50 to 80,> 60,–,–
"Fc1cc2[nH]c(-c3cccc(Nc4cnc(-c5ccccn5)cn4)c3)nc2cn1 [Example 330, N-(3-(6-fluoro-1H-imidazo[4,5-c]pyridin-2-yl)phenyl)-5-(pyridin-2-yl)pyrazin-2-amine]",> 60,–,–,> 80,–,–,–
"FC(F)Oc1cc2[nH]c(-c3cccc(Nc4ccc(-c5cccnn5)cc4)c3)nc2cn1 [Example 331, 3-(6-(difluoromethoxy)-1H-imidazo[4,5-c]pyridin-2-yl)-N-(4-(pyridazin-3-yl)phenyl)aniline]",> 60,–,–,> 80,30 to 60,–,–
"Fc1cc2nc(-c3cccc(Nc4ncc(-c5cscn5)cn4)c3)[nH]c2cc1F [Example 332, N-(3-(5,6-difluoro-1H-benzo[d]imidazol-2-yl)phenyl)-5-(thiazol-4-yl)pyrimidin-2-amine]",> 60,–,–,> 80,> 60,–,–
"FC(F)Oc1ccc2nc(-c3cccc(Nc4ccc(-c5cccnn5)cc4)c3)[nH]c2c1 [Example 335, 3-(6-(difluoromethoxy)-1H-benzo[d]imidazol-2-yl)-N-(4-(pyridazin-3-yl)phenyl)aniline]",> 60,–,–,–,> 60,–,–
"FC(F)Oc1cc2[nH]c(-c3cccc(Nc4cnc(-c5ccccn5)cn4)c3)nc2cn1 [Example 336, N-(3-(6-(difluoromethoxy)-1H-imidazo[4,5-c]pyridin-2-yl)phenyl)-5-(pyridin-2-yl)pyrazin-2-amine]",> 60,–,–,> 80,> 60,–,–
